Test systems include A549 NSCLC; PC-3 prostate; A498 renal; HCT-116 colon; COLO 205 colon; T-47D breast.
What all share (assay): DTP human tumour cell line panel, 48 h

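Assay format: 96-well plates, 48-hour exposure. Abbreviation: GI50, concentration required for 50% inhibition of growth. TGI: total growth inhibition.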 Where only a bound is given, the exact number is not on record here.

A word on the TGI: it is the concentration giving total growth inhibition. One may read the GI50 as the concentration that inhibits growth by half.

Take `C=CCOc1ccccc1N=N/C(C#N)=N\Nc1ccccc1OCC=C`: the TGI in the assay on A549 NSCLC, in the assay with PC-3 prostate, in the assay with A498 renal, in the assay on HCT-116 colon, in the assay on COLO 205 colon and in the assay with T-47D breast was greater than 100 µM each time.
Turning to `O=C1NC(N/N=C\C(O)C(O)C(O)CO)=N/C1=C/c1ccc(Cl)cc1` (configuration not stated), the TGI in the assay on A549 NSCLC, with PC-3 prostate, in the assay on A498 renal, in the assay on HCT-116 colon, in the assay on COLO 205 colon and in the assay with T-47D breast was greater than 100 µM throughout.
On to `O=C1C(NCCc2ccc(O)c(O)c2)=CC(=O)c2ncccc21`, for which the TGI in the assay on A549 NSCLC is 35.7 µM; in the assay with PC-3 prostate, greater than 100 µM; in the assay on A498 renal, 46.7 µM; in the assay on HCT-116 colon, 29 µM; in the assay with COLO 205 colon, 28 µM; in the assay with T-47D breast it was 65.3 µM.
Take `CC(C(=O)ON1C(=O)CCC1=O)c1ccc(C(=O)c2ccccc2)s1` (configuration not stated): the total growth inhibition concentration (TGI) in the assay with A549 NSCLC, in the assay with PC-3 prostate, with A498 renal, in the assay on HCT-116 colon, in the assay with COLO 205 colon and in the assay with T-47D breast was greater than 100 µM each time.
In the case of `O=C(CN1CCN(Cc2ccccc2)CC1)N1CCCn2c1nc1ccccc1c2=O`, the TGI in the assay with A549 NSCLC, in the assay with PC-3 prostate, in the assay on A498 renal, in the assay with HCT-116 colon, in the assay on COLO 205 colon and with T-47D breast was greater than 100 µM each time.
In the case of `[Se]=P(c1ccccc1)(c1ccccc1)c1ccc(C(c2ccccc2)=P(c2ccccc2)(c2ccccc2)c2ccccc2)cc1`, the TGI in the assay with A549 NSCLC was determined as 13 µM; with PC-3 prostate, 9.34 µM; in the assay on A498 renal it was 9.4 µM; with HCT-116 colon it was 4.7 µM; with COLO 205 colon it was 0.659 µM; with T-47D breast, 7.07 µM.
Take `C=CCOCn1cnc2c(N)ncnc21`: the TGI in the assay with A549 NSCLC, in the assay on PC-3 prostate, in the assay on A498 renal, in the assay with HCT-116 colon, with COLO 205 colon and in the assay with T-47D breast was greater than 100 µM throughout.
With `c1ccc(C2=Nc3nc4ccccc4n3C(c3ccccc3)C2)cc1` (configuration not stated), the total growth inhibition concentration (TGI) in the assay on A549 NSCLC, in the assay with PC-3 prostate, in the assay on A498 renal, in the assay with HCT-116 colon, in the assay on COLO 205 colon and with T-47D breast was greater than 100 µM in each case.
For `CC1(C)N=C(C(N)=O)c2ncn(CCO)c2N1`, the concentration for total growth inhibition (TGI) in the assay on A549 NSCLC, with PC-3 prostate, with A498 renal, in the assay with HCT-116 colon, in the assay on COLO 205 colon and in the assay on T-47D breast was greater than 100 µM throughout.
As to `CCCCc1c(C(=O)OC(C)(C)C)cc(C#Cc2cc(C(=O)OC(C)(C)C)c(CCCC)c(C(=O)OC(C)(C)C)c2)cc1C(=O)OC(C)(C)C`, the TGI with A549 NSCLC, in the assay with PC-3 prostate, in the assay with A498 renal, in the assay with HCT-116 colon, in the assay with COLO 205 colon and in the assay with T-47D breast was greater than 100 µM each time.
`Cc1ccc(S(=O)(=O)/N=C(\NN)Nc2ccc(Cl)cc2)cc1`: the TGI with A549 NSCLC, in the assay with PC-3 prostate, in the assay on A498 renal, with HCT-116 colon, with COLO 205 colon and in the assay with T-47D breast was greater than 100 µM each time.
With `CCOC(=O)c1c(Br)c(-c2ccc(Br)cc2)c(Br)n1C`, the TGI in the assay on A549 NSCLC was greater than 100 µM; in the assay with PC-3 prostate it was 71.1 µM; in the assay on A498 renal it was 44.2 µM; in the assay with HCT-116 colon it was 34.4 µM; in the assay on COLO 205 colon it was 34.3 µM; in the assay with T-47D breast, greater than 100 µM. In addition, the GI50 in the assay on HCT-116 colon is 14.8 µM.
Take `CC(C)C(C/C=C1\CC(CO)(COC(=O)c2ccccc2)OC1=O)C(C)C` (configuration not stated): the TGI in the assay with A549 NSCLC was 30.5 µM; with PC-3 prostate, 32.5 µM; in the assay with A498 renal, 50.7 µM; in the assay with HCT-116 colon it was 31 µM; in the assay on COLO 205 colon, 25.4 µM; with T-47D breast, greater than 100 µM.
For the molecule `O=C1C(F)=CC(COC(c2ccccc2)(c2ccccc2)c2ccccc2)OC1n1cc(F)c(=O)[nH]c1=O` (configuration not stated), the TGI with A549 NSCLC is 6.12 µM; in the assay on PC-3 prostate, 4.69 µM; with A498 renal, 24.4 µM; in the assay on HCT-116 colon, 10.9 µM; in the assay with COLO 205 colon, greater than 21.5 µM; in the assay on T-47D breast, greater than 28.6 µM.
For the molecule `NC(=Nc1ccc(O)cc1)S(=O)(=O)O`, the TGI with A549 NSCLC, with PC-3 prostate, with A498 renal, with HCT-116 colon, in the assay with COLO 205 colon and in the assay with T-47D breast was greater than 100 µM each time.
In the case of `C=CC1ON(Cc2ccccc2)CCc2cc(OC)c(OC)cc21` (configuration not stated), the TGI with A549 NSCLC was greater than 100 µM; in the assay on PC-3 prostate, greater than 100 µM; with A498 renal it was 67.8 µM; in the assay with HCT-116 colon, greater than 100 µM; in the assay with COLO 205 colon, greater than 100 µM; in the assay with T-47D breast, greater than 100 µM.
As to `O=C1/C(=C\c2cccc(Oc3ccccc3)c2)S(=O)(=O)C(c2ccccc2)N1c1ccccc1Cl` (configuration not stated), the TGI in the assay with A549 NSCLC was greater than 100 µM; in the assay with PC-3 prostate, greater than 100 µM; in the assay on A498 renal, greater than 100 µM; in the assay with HCT-116 colon it was 39.2 µM; with COLO 205 colon it was 33.5 µM; with T-47D breast it was greater than 100 µM.
Regarding `CN(C)c1nc(NC23CC4CC(CC(C4)C2)C3)nc(N(C)C)n1`, the TGI in the assay on A549 NSCLC was greater than 39.4 µM; in the assay with PC-3 prostate it was greater than 42.2 µM; with A498 renal it was greater than 100 µM; in the assay on HCT-116 colon, greater than 57.1 µM; with COLO 205 colon, greater than 49.6 µM; in the assay on T-47D breast, 49.6 µM.
Turning to `CC(C)=CC(=O)O[C@H]1C(=O)O[C@@H]2C[C@H]3[C@H](C)C(=O)C(O[C@@H]4O[C@H](CO)[C@@H](O)[C@H](O)[C@H]4O)=C[C@]3(C)[C@H]3[C@@H](O)[C@H](O)[C@]4(C(=O)O)OC[C@]32[C@@H]14`, the GI50 in the assay with A549 NSCLC was 55 µM; in the assay on HCT-116 colon it was 29.8 µM. Besides, the TGI in the assay with A549 NSCLC, in the assay with PC-3 prostate, in the assay with A498 renal, in the assay on HCT-116 colon, with COLO 205 colon and in the assay on T-47D breast was greater than 100 µM each time.
Turning to `O=c1[nH]nc(-c2ccccc2)n1/N=C/c1c[nH]c2ccccc12`, the TGI in the assay on A549 NSCLC, with PC-3 prostate, with A498 renal, with HCT-116 colon, in the assay on COLO 205 colon and with T-47D breast was greater than 100 µM each time.
On to `Cn1c(=O)c2c(nc3n(Cc4ccccc4)c(=O)c(NCCBr)cn23)n(C)c1=O`, for which the TGI in the assay with A549 NSCLC is greater than 100 µM; in the assay on PC-3 prostate it was greater than 100 µM; in the assay with A498 renal, 91.1 µM; in the assay on HCT-116 colon it was 82 µM; with COLO 205 colon, greater than 100 µM; with T-47D breast it was 52.9 µM.
Turning to `COC(=O)/C=C(\C)C(=O)N(C)c1ccccc1I`, the TGI in the assay on A549 NSCLC, in the assay on PC-3 prostate, with A498 renal, with HCT-116 colon, in the assay on COLO 205 colon and in the assay with T-47D breast was greater than 100 µM in each case.
On to `O=[N+]([O-])/C(C(Cl)=C(Cl)Cl)=C1\NCCO1`, for which the TGI in the assay on A549 NSCLC, in the assay with PC-3 prostate, with A498 renal, in the assay on HCT-116 colon, in the assay on COLO 205 colon and in the assay with T-47D breast was greater than 100 µM in each case.
Take `O=c1[nH]nc(-c2ccccc2)n1/N=C/c1ccncc1`: the TGI in the assay with A549 NSCLC is greater than 100 µM; in the assay with PC-3 prostate, greater than 100 µM; with A498 renal it was 71.6 µM; in the assay on HCT-116 colon it was greater than 100 µM; in the assay on COLO 205 colon, greater than 100 µM; in the assay with T-47D breast, greater than 100 µM.
Consider `Cc1ccc(OCC2OC(n3cnc4nc(Cl)nc(Cl)c43)CC2Oc2ccc(C)cc2)cc1` (configuration not stated), for which the TGI in the assay on A549 NSCLC was greater than 63.3 µM; with PC-3 prostate, 24.5 µM; in the assay on A498 renal, 72.2 µM; in the assay on HCT-116 colon, 17.9 µM; in the assay on COLO 205 colon, 27.6 µM; in the assay with T-47D breast it was 30.7 µM.
Regarding `O=C1Sc2ccc(Br)cc2C(=O)Sc2ccccc21`, the total growth inhibition concentration (TGI) with A549 NSCLC is greater than 71.1 µM; in the assay with PC-3 prostate, 26.1 µM; with A498 renal it was 43.6 µM; in the assay on HCT-116 colon, 26.9 µM; in the assay on COLO 205 colon, 28.4 µM; with T-47D breast, 31 µM.
`CCOC(=O)N1CCN(c2ccc3c(C)cc(C)nc3n2)CC1`: the TGI with A549 NSCLC, in the assay on PC-3 prostate, in the assay with A498 renal, in the assay on HCT-116 colon, in the assay on COLO 205 colon and with T-47D breast was greater than 100 µM each time.
In the case of `CCOC(=O)/C(=C\c1ccc(N(C)C)cc1)S(=O)(=O)C(F)(F)C(F)(F)C(F)(F)C(F)(F)F`, the total growth inhibition concentration (TGI) with A549 NSCLC, with PC-3 prostate, with A498 renal, with HCT-116 colon, with COLO 205 colon and with T-47D breast was greater than 100 µM in each case.
Turning to `C/C(=N/NC(=S)Nc1ccccc1Cl)c1cccc(/C(C)=N\NC(=S)Nc2ccccc2Cl)n1`, the total growth inhibition concentration (TGI) is greater than 100 µM in the assay on A549 NSCLC; greater than 100 µM in the assay on PC-3 prostate; greater than 100 µM in the assay on A498 renal; 49.4 µM in the assay with HCT-116 colon; greater than 100 µM in the assay with COLO 205 colon; greater than 100 µM with T-47D breast.

(Values after PubChem BioAssay (NCI).)
